Data published in patent publication US11051515B2, “3-acyl-benzamides and their use as herbicides” (Bayer Aktiengesellschaft, priority 2017, dated 2021).

How the values were obtained:
ALOMY [1] = assay: Pre-emergence action against ALOMY; assay type: in vivo, Alopecurus myosuroides; details: Alopecurus myosuroides, 504 h; dosage 320 g/ha; pre-emergence; scored visually after 3 weeks vs untreated controls; 100% = plants have died, 0% = like control plants; read-out: Pre-emergence action against ALOMY (herbicidal activity in percent)
In short: (§1)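 Seeds sown in sandy loam in wood-fiber pots and covered with soil. Greenhouse growth; visual damage scored after 3 weeks versus untreated controls (100% = dead, 0% = like control).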

CYPES [2] = assay: Pre-emergence action against CYPES; assay type: in vivo, Cyperus esculentus; details: Cyperus esculentus, 504 h; pre-emergence, dosage 320 g/ha, scored visually after 3 weeks vs untreated controls; read-out: Pre-emergence action against CYPES (herbicidal activity)
In short: as §1

ECHCG [3] = assay: Pre-emergence action against ECHCG; assay type: in vivo, Echinochloa crus-galli; details: Echinochloa crus-galli, 504 h; pre-emergence, dosage 320 g/ha, scored visually after 3 weeks vs untreated controls; read-out: Pre-emergence action against ECHCG (herbicidal activity)
In short: as §1

SETVI [4] = assay: Pre-emergence action against SETVI; assay type: in vivo, Setaria viridis; details: Setaria viridis, 504 h; pre-emergence, dosage 320 g/ha, scored visually after 3 weeks vs untreated controls; read-out: SETVI (Table B8, pre-emergence herbicidal activity)
In short: as §1

AMARE [5] = assay: Pre-emergence action against AMARE; assay type: in vivo, Amaranthus retroflexus; details: Amaranthus retroflexus, 504 h; pre-emergence, dosage 320 g/ha, scored visually after 3 weeks vs untreated controls; read-out: Pre-emergence action against AMARE (herbicidal activity)
In short: as §1

MATIN [6] = assay: Pre-emergence action against MATIN; assay type: in vivo, Matricaria inodora; details: Tripleurospermum inodorum, 504 h; Dosage 320 g/ha, pre-emergence
In short: as §1

PHBPU [7] = assay: Pre-emergence action against PHBPU; assay type: in vivo, Pharbitis purpurea; details: Ipomoea purpurea, 504 h; Dosage 320 g/ha, pre-emergence
In short: as §1

STEME = assay: Pre-emergence action against STEME; assay type: in vivo, Stellaria media; details: Stellaria media, 504 h; Dosage 320 g/ha, pre-emergence
In short: as §1

VIOTR = assay: Pre-emergence action against VIOTR; assay type: in vivo, Viola tricolor; details: Viola tricolor, 504 h; Dosage 320 g/ha, pre-emergence
In short: as §1

ALOMY [8] = assay: Post-emergence action against ALOMY; assay type: in vivo, Alopecurus myosuroides; details: Alopecurus myosuroides, 504 h; Dosage 80 g/ha, post-emergence
In short: (§2)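 Weeds grown in sandy loam in greenhouse, treated at one-leaf stage (2–3 weeks after sowing) with WP or EC formulations sprayed as aqueous suspension/emulsion at 600 to […] water with 0.2% wetting agent. Visual rating after about 3 weeks versus untreated controls, as % herbicidal action (100% = plants dead, 0% = like control).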

CYPES [9] = assay: Post-emergence action against CYPES; assay type: in vivo, Cyperus esculentus; details: Cyperus esculentus, 504 h; post-emergence, dosage 80 g/ha, visual assessment about 3 weeks after treatment vs untreated controls; read-out: Post-emergence action against CYPES (herbicidal action in percent)
In short: as §2

ECHCG [10] = assay: Post-emergence action against ECHCG; assay type: in vivo, Echinochloa crus-galli; details: Echinochloa crus-galli, 504 h; post-emergence, dosage 80 g/ha, visual assessment about 3 weeks after treatment vs untreated controls; read-out: Post-emergence action against ECHCG (herbicidal action in percent)
In short: as §2

SETVI [11] = assay: Post-emergence action against SETVI; assay type: in vivo, Setaria viridis; details: Setaria viridis, 504 h; post-emergence, dosage 80 g/ha, visual assessment about 3 weeks after treatment vs untreated controls; read-out: Post-emergence action against SETVI (herbicidal action in percent)
In short: as §2

ABUTH = assay: Post-emergence action against ABUTH; assay type: in vivo, Abutilon theophrasti; details: Abutilon theophrasti, 504 h; post-emergence, dosage 80 g/ha, visual assessment about 3 weeks after treatment vs untreated controls; read-out: Post-emergence action against ABUTH (herbicidal action in percent)
In short: as §2

AMARE [12] = assay: Post-emergence action against AMARE; assay type: in vivo, Amaranthus retroflexus; details: Amaranthus retroflexus, 504 h; post-emergence, dosage 80 g/ha, visual assessment about 3 weeks after treatment vs untreated controls; read-out: Post-emergence action against AMARE (herbicidal action in percent)
In short: as §2

MATIN [13] = assay: Post-emergence action against MATIN; assay type: in vivo, Matricaria inodora; details: Tripleurospermum inodorum, 504 h; post-emergence, dosage 80 g/ha, visual assessment about 3 weeks after treatment vs untreated controls; read-out: Post-emergence action against MATIN (herbicidal action in percent)
In short: as §2

PHBPU [14] = assay: Post-emergence action against PHBPU; assay type: in vivo, Pharbitis purpurea; details: Ipomoea purpurea, 504 h; post-emergence, dosage 80 g/ha
In short: as §2

POLCO = assay: Post-emergence action against POLCO; assay type: in vivo, Polygonum convolvulus; details: Fallopia convolvulus, 504 h; post-emergence, dosage 80 g/ha
In short: as §2

VERPE = assay: Post-emergence action against VERPE; assay type: in vivo, Veronica persica; details: Veronica persica, 504 h, dosage 80 g/ha
In short: as §2

Row | Compound | pest or weed control at 320 g/ha (ALOMY [1]) [%] | pest or weed control at 320 g/ha (CYPES [2]) [%] | pest or weed control at 320 g/ha (ECHCG [3]) [%] | pest or weed control at 320 g/ha (SETVI [4]) [%] | pest or weed control at 320 g/ha (AMARE [5]) [%] | pest or weed control at 320 g/ha (MATIN [6]) [%] | pest or weed control at 320 g/ha (PHBPU [7]) [%] | pest or weed control at 320 g/ha (STEME) [%] | pest or weed control at 320 g/ha (VIOTR) [%] | pest or weed control at 80 g/ha (ALOMY [8]) [%] | pest or weed control at 80 g/ha (CYPES [9]) [%] | pest or weed control at 80 g/ha (ECHCG [10]) [%] | pest or weed control at 80 g/ha (SETVI [11]) [%] | pest or weed control at 80 g/ha (ABUTH) [%] | pest or weed control at 80 g/ha (AMARE [12]) [%] | pest or weed control at 80 g/ha (MATIN [13]) [%] | pest or weed control at 80 g/ha (PHBPU [14]) [%] | pest or weed control at 80 g/ha (POLCO) [%] | pest or weed control at 80 g/ha (VERPE) [%]
1 | CC(=O)c1c(C(F)(F)F)ccc(C(=O)Nc2nnnn2C)c1Cl [1-137, 3-acetyl-2-chloro-N-(1-methyl-1H-tetrazol-5-yl)-4-(trifluoromethyl)benzamide] | 90 | 100 | 100 | 100 | 100 | 100 | 90 | 100 | 100 | 80 | 90 | 90 | 100 | 90 | 90 | 90 | 100 | 100 | 90
2 | Cn1nnnc1NC(=O)c1ccc(C(F)F)c(C(=O)C2CC2)c1Cl [1-168] | 100 | 90 | 100 | 100 | 100 | 100 | 100 | 100 | 100 | 100 | 100 | 100 | 100 | 100 | 100 | 100 | 100 | 100 | 100
